In article PMC7473840, “Identification of a molecular locus for normalizing dysregulated GABA release from interneurons in the Fragile X brain” (Molecular Psychiatry, 2018):

What was measured:
[1] = system: PNs, WT cerebellar slices; assay: Spontaneous firing of PNs, cell-attached, WT; assay type: cell-based, mouse; conditions: 10 μM
[2] = system: PNs, Fmr1-KO cerebellar slices; assay: Spontaneous firing of PNs, cell-attached, Fmr1-KO; assay type: cell-based, mouse; conditions: 10 μM, Fmr1-KO
[3] = system: Kv1.2–FMRP interaction, cerebellar homogenates; assay: Co-IP of Kv1.2 with FMRP (anti-FMRP antibody), peptide blocking; assay type: binding; conditions: WT mouse cerebellar homogenates; 250 μM peptide added prior to anti-FMRP antibody; immunoblot; at least in triplicate
Protocol: Whole cerebellums from WT and Fmr1 KO mice were homogenized in ice-cold Pull-Down buffer (1% Lubrol, 50 mM Tris–HCl, pH 7.4, 10 nM Na-orthovanadate, 30 mM Na-pyrophosphate, 50 mM NaF, 20 μm ZnCl2, and 0.25 mM PMSF, with the addition of protease inhibitor cocktail) using a Potter-Elvehjem grinding chamber (VWR). Samples were then centrifuged at 5000g for 20 min and 500 μL of supernatants were transferred into 1.5 ml Eppendorf tubes. 1:100 dilutions of anti-FMRP (Abcam 17722), anti-Kv1.2 (K14/16; Neuromab), anti-Kv1.2 ext-c (extracellular; Alomone labs), anti-Kv1.2 N-term (NBP1-42802; Novus), or anti-GAPDH (GAPDH-71.1; 1:80,000; Sigma-Aldrich) antibodies were added to the homogenate and incubated at 4 °C under continuous agitation for 2 h. A total 30 μL of a 1:1 mixture of pre-washed protein A and protein G magnabeads (Genscript) was then added and the samples were incubated under the same conditions for another 2 h. Beads were washed 4 times with PBS-Tween (0.2% Tween w/v) and then centrifuged at 3000g for 1 min. A sample was kept to verify total protein input. Protein was disassociated from the beads with the addition of 30 μL of 2× loading buffer (4% SDS, 20% glycerol w/v, 0.1 M dithiothreitol, 100 mM Tris–HCl, pH 6.8) then submitting the samples to 3 min at 95 °C. […] Bands were quantified as previously described using the AlphaEase SA software. […]

BC–PN synapse, WT = assay: sIPSCs from PNs, paired BC–PN recording, WT synapses; assay type: cell-based, mouse; conditions: peptide 2.5 mM infused into WT BCs, before and 20 min after; n = 5-6
[4] = molecular target: T1, recombinant full-length FMRP (isoform 1) (Homo sapiens, UniProt Q06787); assay: In vitro intrinsic protein fluorescence binding assay; conditions: 500–1000 μM peptide and 1 μM FMRP, 100 mM NaCl, 50 mM Na2PO4 pH 7.4, 2 mM DTT, 20 °C, excitation 287 nm
T1 construct: containing cDNA for full-length human FMRP; His-SUMO (N, cleaved yes); made in house; host or cells: Escherichia coli BL21 (DE3) Codon Plus
Protocol: Small Ubiquitin-like Modifier (SUMO) fusion construct containing cDNA for full-length human FMRP was generated by gene synthesis (GenScript USA Inc.) and subcloned into a pET SUMO vector (Invitrogen). […] The pET SUMO–FMRP construct was transformed into Escherichia coli BL21 (DE3) Codon Plus cells and grown at 37 °C in Lennox broth medium. Protein expression was induced with 0.5 mM isopropyl-β-D-thiogalactopyranoside when optical density reached ~0.6, followed by 18 h of additional growth at 16 °C. Cells were harvested by centrifugation and pellets stored at −20 °C. In order to purify SUMO–FMRP, thawed pellets were resuspended in lysis buffer [50 mM Tris, pH 8.0, 500 mM NaCl, 20 mM imidazole, 10% glycerol, 250 mM arginine, 5 mM benzamidine, and 2 mM dithiothreitol (DTT)], supplemented with DNAse 1 and cOmplete™ Protease Inhibitor Cocktail (Sigma-Aldrich). After cell lysis and centrifugation, the filtered supernatant was loaded onto a 20 ml NiNTA column equilibrated in the same lysis buffer. The column was extensively washed with 20 column volumes (CV) of the same buffer supplemented with 100 mM imidazole. Elution of SUMO-fusion FMRP was performed using 100–500 mM imidazole gradient, and protein-containing fractions were combined and a 6× His tagged Ulp protease was added. Cleavage of the His-SUMO tag was performed overnight in a cold room (7 °C) while dialyzing in 4 L of 50 mM Tris, pH 8.0, 500 mM NaCl, 50 mM imidazole, 10% glycerol, 250 mM arginine, 5 mM benzamidine, and 2 mM DTT. Complete cleavage of the SUMO tag by Ulp was confirmed by SDS-PAGE and the protein of interest was separated from the Ulp protease and SUMO tag by passing the cleavage reaction over a second NiNTA column. Flow-through and wash fractions containing protein of interest were combined and then loaded onto a Superdex 200 gel filtration column pre-equilibrated with the same lysis buffer.
The eluted purified proteins were analyzed by both SDS-PAGE and mass spectrometry, and the combined fractions were dialyzed three times in 5 L of Fluorescence Binding Buffer (100 mM NaCl, 50 mM Na2PO4 pH 7.4, 2 mM DTT). After filtering through a 0.22 μm GV Durapore Centrifugal Filter Unit (Millipore), FMRP concentration was determined by absorbance at 280 nm using a molar extinction coefficient of 48,360 M^−1 cm^−1, and the protein was used for binding studies with Kv1.2 C-terminal peptides.
All measurements were carried out in the Fluorescence Binding Buffer at 20 °C using a PTI Quanta Master 80 Spectrofluorometer (HORIBA Scientific) by monitoring intrinsic protein fluorescence with an excitation wavelength of 287 nm. Prior to performing a binding titration for any of the peptides, a full emission spectrum (300–450 nm) of the peptide:FMRP complex was compared to that of apo-FMRP. Differences in the spectrum of the complex (500–1000 μM peptide and 1 μM FMRP) and apo-FMRP at the same concentration (i.e., fluorescence quenching, enhancement or shifts of the emission maximum) indicated binding. For each of these peptides, binding measurements were performed by adding aliquots of saturated 1 µM FMRP:peptide complex (titration solution) to 400 μL of 1 μM apo-FMRP solution as described by Wells and Di Cera. Briefly, at each titration step, a volume vD was removed from the cuvette containing the apo-FMRP and replaced by an equal volume of the titration solution (1 μM FMRP: 200–500 μM peptide complex). As a result, the concentration of FMRP (1 μM) and total volume of solution in the cuvette, V = 400 μL, remained constant while the concentration of the peptide at the ith titration step, [peptide]i, was increased, and given by
[peptide]i = [peptide]0^i.D^i+[peptide]∞^i.(1 − D^i),
where, [peptide]0 was the initial peptide concentration in the cuvette, [peptide]∞ was the peptide concentration in the titration solution, and D was the dilution factor, D = (V − vD)/V. […]

## NS(=O)(=O)c1cccc2c1c([N+](=O)[O-])cc1nc(O)c(O)nc12 [NBQX]
[1]
  spontaneous firing of PNs, WT: little effect on the spontaneous firing
[2]
  spontaneous firing of PNs, KO: little effect on the spontaneous firing

## PKIPSSPDLKKSRSASTISKSD [Kv436-457]
[3]
  inhibition of Kv1.2–FMRP binding (co-IP): Neither the non-phosphorylated peptide with the identical sequence (Kv436-457, ^436PKIPSSPDLKKSRSASTISKSD^457) nor the doubly-phosphorylated scrambled peptide (IKPSTLSDSRAKpSSDPpSKPSIK) inhibited the Kv1.2–FMRP binding activity
BC–PN synapse, WT
  amplitude and frequency of sIPSCs: but not the non-phosphorylated or scrambled phosphorylated peptide, significantly elevated the amplitude and frequency of sIPSCs
[4]; listed as non-phosphorylated
  change of fluorescence emission spectrum of FMRP (binding): no change in the fluorescence emission spectrum of FMRP
[4]; listed as non-phosphorylated Kv1.2 C-terminal peptide
  change of fluorescence emission spectrum of FMRP (binding): no binding

## IKPSTLSDSRAKpSSDPpSKPSIK [scrambled]
[3]
  inhibition of Kv1.2–FMRP binding (co-IP): Neither the non-phosphorylated peptide with the identical sequence (Kv436-457, ^436PKIPSSPDLKKSRSASTISKSD^457) nor the doubly-phosphorylated scrambled peptide (IKPSTLSDSRAKpSSDPpSKPSIK) inhibited the Kv1.2–FMRP binding activity
BC–PN synapse, WT
  amplitude and frequency of sIPSCs: but not the non-phosphorylated or scrambled phosphorylated peptide, significantly elevated the amplitude and frequency of sIPSCs
[4]
  change of fluorescence emission spectrum of FMRP (binding): no change in the fluorescence emission spectrum of FMRP
[4]; listed as doubly-phosphorylated scrambled peptide
  change of fluorescence emission spectrum of FMRP (binding): no binding
